Experimental data reported in patent US20030175365A1, “Natural drug induced differentiation cancer cells to resemble normal cells” (priority 2002, published 2003).
Marks after values point to notes of the source that are not given here.

How the values were obtained:
tumor suppressor p^17 = test: p17 allelic loss by PCR-SSCP; type: cell-based
Description: (§1) The p^17 is a tumor suppressor. The gastric cancer cells were used in this experiment. Gastric cancer cells and normal cells were cultured in RPMI 1640 medium supplement with 10% fetal bovine serum. All the exons of tumor suppressor p^17 were amplified by the polymease chain reaction (PCR) using specific oligonucleotide primers. The PCR products were subjected to single-strand conformation polymorphism (SSCP) analysis. A second PCR-SSCP analysis was performed. Levels of DNA methylation were determined.

[1] = test system: oral epidermoid carcinoma (KB); test: Tumor cell proliferation inhibition, KB; type: cell-based, Human; conditions: 1 μg/ml drug, 72 hours
Description: (§2) Human tumor cell lines: Hela leukemia HL-60, malignant melanocarcinoma B16, oral epidermoid carcinoma (KB), lung carcinoma (A549), breast carcinoma MCF-7, adenocarcinoma of stomach.
(§3) Animal tumor cell lines: Walker carcinoma, LLC-WRC-256, malignant melanoma (RMMI 1846), 3T3,and S-180 sarcoma (CCRF-180). All lines were routinely cultured in the RPMI1640 medium supplemented 20% fetal calf serum. The experiment was carried out in 96 microplate, each well had […] and given desired concentration of 1 μg/ml (1 x 10^−6 g/ml) drug. Then the plate was incubated at 37° C. in an atmosphere of humidified air enriched with 5 percent carbon dioxide for 72 hours.
(§4) Inhibition percent rate of tumor cell proliferation was obtained according to the bellow formula. [formula]

[2] = test system: Neuroblastoma tumor cells, melanocytic and epithelial cells; test: Apoptosis with HHT and APO-2L (filter binding assay); type: cell-based
Description: (§5) Neuroblastoma tumor cells, melanocytic and epithelial cells used in this experiment. Cells were grown routinely as monolayers in a 1:1 mixture of Eagle's minimum essential medium and Ham's nutrient mixture F-12 supplemented with 15% heat-inactivated fetal calf serum. Cells were used over a maximum of 15 passages to minimize intersubline differentiation.
Cytotoxicity Assays. Etoposide sensitivity was measured by clonogenic assay. Five hundred cells were plated per 2-cm^2 dish. Cells were treated for 1 hour with HHT or medium. Results are the mean ±S.E. of three independent experiments and duplicate plates were used in each individual experiment. Apoptosis was quantified by the filter binding assay.

[3] = test system: Human leukemia cells (HL-60); test: Apoptosis of cancer cells; type: cell-based; conditions: drug concentration 20 μm
Description: Human leukemia cells (HL-60) were grown in RPMI Medium 1640 supplemented with 10% (v/v) heat-inactivated FBS (56° C. for 30 min) at 37° C. in a humidified 95% air/5% CO2 atmosphere. Cells were seeded at a level of 2×10^5 cells/ml. Cells were allowed to attain a maximum density of 1.2×10^6 cells/ml before being passed by dilution into fresh medium to a concentration of 2×10^5 cells/ml.
Apoptosis Determined by two Methods:
Method (1): Cell pellets containing 5×10^6 cells were fixed with 2.5% glutaraldehyde in cacodylate buffer (pH 7.4), dehydrated through graded alcohol, and infiltrated with LX-112 epoxy resin. After overnight polymerization at 60°C. […]
DNA electrophoresis: Untreated and treated HL-60 cells collected by centrifugation, washed in phosphate buffered saline and re-suspended at a concentration of 5×10^6 cells and 0.1% RNase A. The mixture was incubated at 37° C. for 30 min and then incubated for an additional 30 min at 37° C. with 1 ml protease K. Buffer was added and 25 μl of the tube content transferred to the Horizontal 1.5% agarose gel electrophoresis was performed at 2 V/cm. […] DNA fragmentation assays: DNA cleavage was performed, quantitation of fractional solubilized DNA by diphenylamine assay and the percentage of cells harboring fragmented DNA determined by in labeling techniques. […] DNA was precipitated with 0.5 N perchloric acid and quantitated using diphenylamine reagent. […]

[4] = test system: malignant melanocarcinoma B16; test: Tumor cell proliferation inhibition, B16; type: cell-based, Mouse; conditions: 1 μg/ml drug, 72 hours
Description: as §2, §3, §4

Epidermis cancer cells = test: Differentiation of epidermis cancer cells (NBT, NSE); type: cell-based, mouse; conditions: Epidermis cancer cells + HHT; P < 0.001
mice = test: LD50 in mice; type: in vivo; conditions: I.P.
Description: (§6) Toxic doses for dogs: 0.16 mg/kg/day×7 of HHT was established as the toxic doses. Toxic doses for mice: In 38 normal mice after injection of HHT of 2 mg/kg/day×5 with the observation period of 5 days about 50% of the mice died.

tumor suppressor p^53 = test: p53 mutations by PCR-SSCP; type: cell-based
Description: as §1, with “leukemic” for “p^17 is a tumor suppressor. The gastric cancer cells were used in this experiment. Gastric”, “the p^53” for “tumor suppressor p^17”, “A second PCR-SSCP analysis was performed.” left out

HL-60 = test: Tumor cell proliferation inhibition, HL-60; type: cell-based, Human; conditions: 1 μg/ml drug, 72 hours
Description: as §2, §3, §4

tumor suppressor p^16 = test: Methylation of tumor suppressor p16 (PCR-based) in bladder cell lines; conditions: Cancer cells treated by HHT (no treatment: 81.5; normal: 15.8)
Text: Bladder cell lines were used. Methods of RT-PCR were regular. PCR-based methylation determined by inability of some restriction enzymes to cut methylated sequences methods of determination was used to analyze the methylaton status of the p^16 and p^15 . PCR products were resolved on 2% agarose gels transferred to a nylon membrane and hydridized for the RT-PCR products. An undigested DNA control and MSPI-digested DNA control were examined.

[5] = test system: TPA-stimulated mouse epidermis; test: [3H] thymidine incorporation (DNA synthesis) in TPA-stimulated mouse epidermis; type: in vivo; conditions: TPA-treated mice
Description: It is known that tetradecanoyphorbol-13-acetate (TPA) is strong tumor promoter and TPA can remarkable increase [^3H] thymidine incorporation in mouse epidermis and then to induce Epidermis cancer.
ice were treated with TPA and the rate of [^3H] thymidine incorporation was determined 20 hours later. Male mice (7-9 weeks old) used for experiments. Only mice showing no hair regrowth following shaving were used. Animals were injected intraperitoneally (i.p.) with TPA or 95% saline. After 20 hours, mice were injected i.p. with 60 μCi of [^3H] thymidine (2 Ci/mmol) 20 minutes before sacrifice. Epidermal scrapings were prepared. Epidermis cancer cells were cultured in condition of example 1.

HL-60 cells = test: Induction of differentiation of human leukemic cells (NBT reduction, NSE staining); type: cell-based; conditions: Leukemic cells + HHT; P < 0.001 vs leukemic cells
Description: Cell Lines. HL-60 cells were established from a patient with acute myeloid leukemia. The cells were cultured in culture flasks with RPMI plus 10% FCS.
Studies of Induction of Differentiation. Differentiation of HL-60 cells was assessed by their abilities to produced superoxide as measured by reduction of NBT, by NSE staining and by morphology as detected on cytospin preparations stained with Diff-Quick stain Set, and by analysis of membrane-bound differentiation markers with two-color immunofluorescence. Briefly, cells were preincubated at 4° C. for 60 min in 10% human AB serum and then with FITC-conjugated mouse IgGI isotype control. Analysis of fluorescence was performed on a flow cytometer.

dogs = test: Toxic doses for dogs; type: in vivo; conditions: ×7
Description: as §6

breast carcinoma MCF-7 = test: Tumor cell proliferation inhibition, MCF-7; type: cell-based, Human; conditions: 1 μg/ml drug, 72 hours
Description: as §2, §3, §4

gastric cancer cells = test: Differentiation of gastric cancer cells (NBT, NSE); type: cell-based; conditions: Gastric cancer cells + HHT; P < 0.001
Description: The gastric cancer cells and normal cells were cultured in PRMI 1640 medium supplement with 10% FCS serum. Other method is similar to example 1.

c-myb RNA = test: Oncogene expression by northern blot in ML-1 cells: c-myb; type: cell-based, Human
Description: (§7) Human myeloblastic leukemic cells (ML-1) were maintained in suspension culture in RPMI 1640 medium supplemented with 7.5% heat-inactivated FBS. Cells growth and viability were assayed by hemocytometer using trypan-blue dye exclusion.
(§8) RNA was isolated by the CsCl gradient modification. RNA pellets were washed twice by reprecipitation in ethanol and quantitated by absorbency at […]. RNA analyzed by electrophoresis of 15 μg of RNA through 1.2% agarose formaldehyde gels followed by northern blot transfer to nitrocellulose.
(§9) Single-standard uniformly labeled DNA probes were prepared. Probe of c-myc was a 1.7 Kb cla-Eco RI restriction fragment containing the 3′exon region of human c-myc and probe of c-myb was 1.0 Kb myb-specific Bam HI fragment. Probes for n-ras contained DNA fragments using a modification of the PCR technique. Probes for myb, myc and n-ras were isolated. The isolated fragments were labeled to high specific activity with […] (3000 ci/mmol). Prehybridization of the filter was performed. The hybridization mixer contained 50,000 cpm of probe. The probes were hybridized at 58° C. in 15 mM NaCl, […] sodium citrate for 3 hours. After hybridization, they were exposed to XAR-5 film. Oncogene expression was quantitated by densitometer scanning of the autoradiography.

normal mice = test: Toxic doses for mice (repeated injection); type: in vivo; conditions: 38 normal mice, injection of 2 mg/kg/day×5, observation period of 5 days
Description: as §6

caspase-3 = test: Determination of caspase activation (Ac-DEVD-AMC substrate, cell lysate); type: cell-based; conditions: control 25.4 ± 3.0
Description: as §5
Determination of Caspase Activation. The substrate used was Ac-DEVD-AMC, which was made to 5 mM stock in dimethylformamide. On the day of the assay, substrate stock was diluted in water to 500 μM and kept on ice. Cell lysate (20 μg) was diluted to equal volumes (20 μl) in Nonidet-P40 lysis buffer and 1/10th of the volume of substrate was added. Exactly 10 min later, the reaction was stopped by adding the mix into 2 ml of water. Fluorescence was read on a fluorometer at an excitation wavelength of 380 nm and emission wavelength of 460 nm.

Hela = test: Tumor cell proliferation inhibition, Hela; type: cell-based, Human; conditions: 1 μg/ml drug, 72 hours
Description: as §2, §3, §4

c-myc RNA = test: Oncogene expression by northern blot in ML-1 cells: c-myc; type: cell-based, Human
Description: as §7, §8, §9

## COC(=O)C[C@](O)(CCCC(C)(C)O)C(=O)O[C@@H]1C(OC)=C[C@]23CCCN2CCc2cc4c(cc2[C@H]13)OCO4 [HHT, homoharringtonine]
Tumor suppressor p^17; Leukemic cancer cells treated by HHT (untreated: 40)
  Frequency of p^17 allelic loss (%): 5%
Tumor suppressor p^17; p^17 allelic loss, Leukemic cancer cells treated by HHT
  Inhibition T/C (%): 12.5 ± 1.2%
[1]
  Inhibition (%): 80.0 ± 8.5%
[2]; HHT 500 nM (control 5.0 ± 0.49)
  Apoptosis (%): 39.5 ± 4.1%
[3]
  Apoptosis (%): 68.3 ± 7.6%
[4]
  Inhibition (%): 73.8 ± 8.1%
Epidermis cancer cells
  NBT (%): 80* %
  NSE (%): 78* %
mice
  LD50: 3.17 ± 0.19 mg/kg
Tumor suppressor p^53; Gastric cancer cells treated by HHT (no drug: 35)
  Frequency of p^53 mutations (%): 5%
Tumor suppressor p^53; p^53 mutations, Gastric cancer cells treated by HHT
  Inhibition T/C (%): 14.3 ± 1.5%
HL-60
  Inhibition (%): 80.8 ± 9.0%
Tumor suppressor p^16
  Methylation (%): 23.8^b %
[5]
  DNA synthesis of TPA-stimulated mouse epidermis: remarkable inhibit
HL-60 cells
  NBT (%): 65* %
  NSE (%): 62* %
dogs
  Toxic dose: 0.16 mg/kg/day
Breast carcinoma MCF-7
  Inhibition (%): 78.5 ± 7.9%
Gastric cancer cells
  NBT (%): 58* %
  NSE (%): 60* %
c-myb RNA; HHT concentration 10 ng/ml
  Inhibition (%) c-myb RNA: 65.0 ± 5.7%
c-myb RNA; HHT concentration 50 ng/ml
  Inhibition (%) c-myb RNA: 67.7 ± 6.8%
Normal mice
  mice died: about 50%
caspase-3
  Caspase-3 activity: 150.5 ± 16
Hela
  Inhibition (%): 75.6 ± 8.0%
c-myc RNA; HHT concentration 10 ng/ml
  Inhibition (%) c-myc RNA: 70.5 ± 8.5%
c-myc RNA; HHT concentration 50 ng/ml
  Inhibition (%) c-myc RNA: 70.8 ± 8.9%

B1: APO-2L: also called TRAIL, has been shown to induce apoptosis of variety of cancer cell types (protein, UniProt P50591 1-281, looked up)
Tumor necrosis factor ligand …: MAMMEVQGGPSLGQTCVLIVIFTVLLQSLCVAVTYVYFTNELKQMQDKYSKSGIACFLKEDDSYWDPNDEESMNSPCWQVKWQLRQLVRKMILRTSEETISTVQEKQQNISPLVRERGPQRVAAHITGTRGRSNTLSSPNSKNEKALGRKINSWESSRSGHSFLSNLHLRNGELVIHEKGFYYIYSQTYFRFQEEIKENTKNDKQMVQYIYKYTSYPDPILLMKSARNSCWSKDAEYGLYSIYQGGIFELKENDRIFVSVTNEHLIDMDHEASFFGAFLVG
[2]; APO-2L (control 5.0 ± 0.49)
  Apoptosis (%): 20.8 ± 2.0%
